PubChem BioAssay AID324 (DTP/NCI, 2004)
Values joined by “and” are separate entries in the source; they are usually repeats but may differ in a detail not shown here. Identical values can stand only once. Toxic doses and inconclusive results are not listed.

System: CD2F1 mice, AMSA-resistant P388 leukemia ip, median survival T/C
Assay: NCI In Vivo Anticancer Drug Screen. Data for tumor model P388 Leukemia resistant to AMSA; NSC 249992 (intraperitoneal) in CD2F1 (CDF1) mice
Conditions: endpoint: median survival time, higher = longer survival
Description: The antitumor activity of compounds was measured in mice bearing transplantable tumors. Survival or tumor size were measured and the results are expressed as the measurement made in the treated group (T) divided by the measurement made in the vehicle treated control group (C). The tumor model used in this assay is P388 Leukemia resistant to AMSA; NSC 249992 (intraperitoneal) in CD2F1 (CDF1) mice

[1] = dose: 0.13 mg/kg/injection, schedule: Q04DX003 (ip), vehicle: water
[2] = dose: 0.21 mg/kg/injection, schedule: Q04DX003 (ip), vehicle: water
[3] = dose: 0.36 mg/kg/injection, schedule: Q04DX003 (ip), vehicle: water
[4] = dose: 0.6 mg/kg/injection, schedule: Q04DX003 (ip), vehicle: water
[5] = dose: 0.97 mg/kg/injection, schedule: Q04DX003 (ip), vehicle: saline
[6] = dose: 1.62 mg/kg/injection, schedule: Q04DX003 (ip), vehicle: saline
[7] = dose: 4.5 mg/kg/injection, schedule: Q04DX003 (ip), vehicle: saline
[8] = dose: 1.0 mg/kg/injection, schedule: Q04DX003 (ip), vehicle: water

## COc1cc2cc3c4cc(OC)c(OC)cc4cc[n+]3c(C)c2cc1OC (tested in a mixture with another compound)
dose: 25.9 mg/kg/injection, schedule: Q04DX003 (ip), vehicle: water
  T/C: 110 % of control
dose: 43.2 mg/kg/injection, schedule: Q04DX003 (ip), vehicle: water
  T/C: 116 % of control

## NC(=O)c1csc(C2OC(CO)C(O)C2O)n1 (stereo not given)
dose: 330.0 mg/kg/injection, schedule: Q01DX009 (ip), vehicle: water
  T/C: 188 % of control
dose: 500.0 mg/kg/injection, schedule: Q01DX009 (ip), vehicle: water
  T/C: 88 % of control

## COc1cc([C@@H]2c3cc4c(cc3[C@@H](OC3OC5COC(C)OC5C(O)C3O)[C@H]3COC(=O)[C@H]23)OCO4)cc(OC)c1O (stereo not given in full)
dose: 6.24 mg/kg/injection, schedule: Q04DX003 (ip), vehicle: water
  T/C: 124 % of control
dose: 17.3 mg/kg/injection, schedule: Q04DX003 (ip), vehicle: water
  T/C: 118 % of control
dose: 18.0 mg/kg/injection, schedule: Q04DX003 (ip), vehicle: Klucel (hydroxypropylcellulose) (HPC)
  T/C: 103 % of control
dose: 27.0 mg/kg/injection, schedule: Q04DX003 (ip), vehicle: Klucel (hydroxypropylcellulose) (HPC)
  T/C: 91 % of control
dose: 28.8 mg/kg/injection, schedule: Q04DX003 (ip), vehicle: clinical formulation
  T/C: 167 % of control
dose: 28.8 mg/kg/injection, schedule: Q04DX003 (ip), vehicle: water
  T/C: 162 % of control
dose: 48.0 mg/kg/injection, schedule: Q04DX003 (ip), vehicle: water
  T/C: 108 % of control
dose: 60.0 mg/kg/injection, schedule: Q04DX003 (ip), vehicle: Klucel (hydroxypropylcellulose) (HPC)
  T/C: 87 % of control

## CC(=O)C1(O)Cc2c(O)c3c(c(O)c2C(OC2CC(N)C(O)C(C)O2)C1)C(=O)c1ccccc1C3=O (stereo not given)
[1]
  T/C: 111 % of control
[2]
  T/C: 122 % of control
[3]
  T/C: 124 % of control
[4]
  T/C: 105 % of control

## COC(=O)C[C@](O)(CCCC(C)(C)O)C(=O)O[C@@H]1C(OC)=C[C@]23CCCN2CCc2cc4c(cc2[C@H]13)OCO4
dose: 1.8 mg/kg/injection, schedule: Q04DX003 (ip), vehicle: saline + alcohol
  T/C: 153 % of control
dose: 3.0 mg/kg/injection, schedule: Q04DX003 (ip), vehicle: saline + alcohol
  T/C: 163 % of control

## CO[C@H](C(=O)[C@@H](O)[C@@H](C)O)[C@@H]1Cc2cc3cc(OC4CC(OC5CC(O)C(O)C(C)O5)C(O)C(C)O4)c(C)c(O)c3c(O)c2C(=O)[C@H]1OC1CC(OC2CC(OC3CC(C)(O)C(O)C(C)O3)C(O)C(C)O2)C(O)C(C)O1 (stereo not given in full)
dose: 0.13 mg/kg/injection, schedule: Q01DX005 (ip), vehicle: saline
  T/C: 112 % of control
dose: 0.22 mg/kg/injection, schedule: Q01DX005 (ip), vehicle: saline
  T/C: 113 % of control
dose: 0.36 mg/kg/injection, schedule: Q01DX005 (ip), vehicle: saline
  T/C: 118 % of control

## COc1cccc2c1C(=O)c1c(O)c3c(c(O)c1C2=O)C[C@@](O)(C(C)=O)C[C@@H]3OC1CC(N)C(O)C(C)O1 (stereo not given in full)
dose: 0.64 mg/kg/injection, schedule: Q04DX003 (ip), vehicle: water
  T/C: 115 % of control
dose: 0.65 mg/kg/injection, schedule: Q04DX003 (ip), vehicle: saline
  T/C: 103 % of control
[5]
  T/C: 121 % of control
dose: 1.08 mg/kg/injection, schedule: Q04DX003 (ip), vehicle: saline
  T/C: 115 % of control
dose: 1.08 mg/kg/injection, schedule: Q04DX003 (ip), vehicle: water
  T/C: 118 % of control
[6]
  T/C: 123 % of control
dose: 1.8 mg/kg/injection, schedule: Q04DX003 (ip), vehicle: saline
  T/C: 124 % of control
dose: 3.0 mg/kg/injection, schedule: Q04DX003 (ip), vehicle: saline
  T/C: 117 % of control
dose: 3.0 mg/kg/injection, schedule: Q04DX003 (ip), vehicle: water
  T/C: 123 % of control
[7]
  T/C: 119 % of control
dose: 5.0 mg/kg/injection, schedule: Q04DX003 (ip), vehicle: water
  T/C: 123 % of control

## COc1cc([C@@H]2c3cc4c(cc3[C@@H](OC3OC5CO[C@@H](c6cccs6)OC5C(O)C3O)[C@H]3COC(=O)[C@H]23)OCO4)cc(OC)c1O (stereo not given in full)
dose: 25.0 mg/kg/injection, schedule: Q04DX003 (ip), vehicle: clinical formulation
  T/C: 90 % of control

## COc1cccc2c1C(=O)c1c(O)c3c(c(O)c1C2=O)C[C@@](O)(C(=O)CO)C[C@@H]3OC1CC(N)C(O)C(C)O1 (stereo not given in full)
[5]
  T/C: 118 % of control and 124 % of control
dose: 1.3 mg/kg/injection, schedule: Q04DX002 (ip), vehicle: saline
  T/C: 109 % of control and 86 % of control
[6]
  T/C: 121 % of control
dose: 2.16 mg/kg/injection, schedule: Q04DX002 (ip), vehicle: saline
  T/C: 104 % of control
dose: 2.7 mg/kg/injection, schedule: Q04DX003 (ip), vehicle: saline
  T/C: 122 % of control
[7]
  T/C: 152 % of control
dose: 6.0 mg/kg/injection, schedule: Q04DX002 (ip), vehicle: saline
  T/C: 90 % of control

## CN(Cc1cnc2nc(N)nc(N)c2n1)c1ccc(C(=O)N[C@@H](CCC(=O)O)C(=O)O)cc1
dose: 3.0 mg/kg/injection, schedule: Q01DX005 (ip), vehicle: sodium bicarbonate
  T/C: 173 % of control
dose: 3.5 mg/kg/injection, schedule: Q01DX005 (ip), vehicle: sodium bicarbonate
  T/C: 171 % of control
dose: 4.0 mg/kg/injection, schedule: Q01DX005 (ip), vehicle: sodium bicarbonate
  T/C: 164 % of control
dose: 4.5 mg/kg/injection, schedule: Q01DX005 (ip), vehicle: sodium bicarbonate
  T/C: 177 % of control
dose: 6.48 mg/kg/injection, schedule: Q04DX003 (ip), vehicle: sodium bicarbonate
  T/C: 165 % of control
dose: 10.8 mg/kg/injection, schedule: Q04DX003 (ip), vehicle: sodium bicarbonate
  T/C: 180 % of control
dose: 18.0 mg/kg/injection, schedule: Q04DX003 (ip), vehicle: sodium bicarbonate
  T/C: 196 % of control
dose: 30.0 mg/kg/injection, schedule: Q04DX003 (ip), vehicle: sodium bicarbonate
  T/C: 114 % of control
dose: 50.0 mg/kg/injection, schedule: Q04DX003 (ip), vehicle: sodium bicarbonate
  T/C: 98 % of control

## CC(=O)[C@]1(O)Cc2c(O)c3c(c(O)c2[C@@H](OC2CC(N)C(O)C(C)O2)C1)C(=O)c1c(O)cccc1C3=O (stereo not given in full)
[1]
  T/C: 122 % of control
[2]
  T/C: 115 % of control
[3]
  T/C: 109 % of control
[4]
  T/C: 124 % of control
[8]
  T/C: 97 % of control

## COc1cccc2c1C(=O)c1c(O)c3c(c(O)c1C2=O)C[C@@](O)(C(=O)CO)C[C@@H]3OC1CC(NCc2ccccc2)C(O)C(C)O1 (stereo not given in full)
dose: 3.89 mg/kg/injection, schedule: Q04DX003 (ip), vehicle: water
  T/C: 123 % of control
dose: 30.0 mg/kg/injection, schedule: Q04DX003 (ip), vehicle: water
  T/C: 100 % of control

## CC[C@]1(O)C[C@H]2CN(CCc3c([nH]c4ccccc34)[C@@](C(=O)OC)(c3cc4c(cc3OC)N(C=O)[C@H]3[C@@](O)(C(=O)OC)[C@H](OC(C)=O)[C@]5(CC)C=CCN6CC[C@]43[C@@H]65)C2)C1
dose: 0.72 mg/kg/injection, schedule: Q04DX003 (ip), vehicle: saline
  T/C: 176 % of control
dose: 1.0 mg/kg/injection, schedule: Q04DX003 (ip), vehicle: saline
  T/C: 102 % of control
dose: 1.2 mg/kg/injection, schedule: Q04DX003 (ip), vehicle: saline
  T/C: 201 % of control
dose: 2.0 mg/kg/injection, schedule: Q04DX003 (ip), vehicle: saline
  T/C: 193 % of control

## CC1OC(OC2CC(O)(C(=O)CO)Cc3c(O)c4c(c(O)c32)C(=O)c2ccccc2C4=O)CC(N)C1O (stereo not given)
[1]
  T/C: 114 % of control
[2]
  T/C: 115 % of control
[4]
  T/C: 117 % of control
[8]
  T/C: 123 % of control

## CC[C@](O)(C(=O)O)c1cc2n(c(=O)c1CO)Cc1cc3ccccc3nc1-2
dose: 18.0 mg/kg/injection, schedule: Q04DX003 (ip), vehicle: saline
  T/C: 192 % of control
dose: 30.0 mg/kg/injection, schedule: Q04DX003 (ip), vehicle: saline
  T/C: 193 % of control
dose: 50.0 mg/kg/injection, schedule: Q04DX003 (ip), vehicle: saline
  T/C: 240 % of control

## CC(=O)N(C)c1ccc(Nc2cc(C)[nH]c3ccc4ncnc4c23)cc1
dose: 19.4 mg/kg/injection, schedule: Q04DX002 (ip), vehicle: saline
  T/C: 101 % of control
dose: 20.7 mg/kg/injection, schedule: Q04DX002 (ip), vehicle: saline
  T/C: 104 % of control
dose: 32.4 mg/kg/injection, schedule: Q04DX002 (ip), vehicle: saline
  T/C: 100 % of control
dose: 34.6 mg/kg/injection, schedule: Q04DX002 (ip), vehicle: saline
  T/C: 112 % of control
dose: 54.0 mg/kg/injection, schedule: Q04DX002 (ip), vehicle: saline
  T/C: 119 % of control
dose: 57.6 mg/kg/injection, schedule: Q04DX002 (ip), vehicle: saline
  T/C: 117 % of control
dose: 90.0 mg/kg/injection, schedule: Q04DX002 (ip), vehicle: saline
  T/C: 113 % of control
dose: 96.0 mg/kg/injection, schedule: Q04DX002 (ip), vehicle: saline
  T/C: 109 % of control
